Counter-ions that a name gives are not always drawn. Like-named read-outs stand apart in the source and are kept apart here.
Assays:
[1] = biological target: phosphorylated ERBB2 (pERBB2) (Homo sapiens (Human), UniProt P04626); experiment: Detection of phosphorylated ERBB2 (pERBB2) by ELISA in BT-474 cells; assay type: cell-based; conditions: four hours incubation with compound
Method in brief: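 BT-474 cells were exposed to serially diluted compounds for 4 h at 37 °C, then lysed. Phospho-ERBB2 in lysates was captured by ELISA and detected with an HRP anti-phosphotyrosine antibody and TMB.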

[2] = biological target: phosphorylated EGFR (pEGFR) (Homo sapiens (Human), UniProt P00533); experiment: Detection of phosphorylated EGFR (pEGFR) by AlphaLISA in A431 cells; assay type: cell-based; conditions: A431 cells (10% FBS), 4 hours incubation, EGF 30 ng/mL for 10 minutes
Method in brief: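 A431 cells in 10% FBS exposed to compound for 4 h at 37 °C, then stimulated 10 min with 30 ng/mL EGF. Lysates assayed for phospho-EGFR by AlphaLISA. % inhibition relative to DMSO and staurosporine controls; IC50 from four-parameter curve fit.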

[3] = tested on: Ba/F3 ERBB2 YVMA; experiment: Cell viability assay (CellTiter Glo, 72 hours); assay type: cell-based, mouse; conditions: Mus musculus, BaF3, 72 h
Description: Cells were treated with compounds, and cell viability was measured as a metric of kinase inhibition.
BT-474, A431, MDA-MB-175VII, NCI-H1781, MCF7, and Ba/F3 cell lines were tested. The Ba/F3 cell line is IL-3-dependent mouse cell line derived from the C3H mouse strain. Ba/F3 cell lines were engineered to express human ERBB2 or EGFR kinases, rendering the cells IL-3 independent. The lines were generated via retroviral transduction utilizing a Moloney murine leukemia virus (MMLV) promoter, and constructs are stably integrated into the cell genome. The sequences of the ERBB2 and EGFR genes used were NCBI Reference Sequences NM_004448.3 and NM_005228.3, respectively.
BT-474, A431, MDA-MB-175VII, NCI-H1781 and MCF7 cells were grown in the appropriate growth medium as described in Table B2 below, and harvested at 50-80% confluence. BT-474, A431, MDA-MB-175VII, NCI-H1781 and MCF7 cells were counted and seeded at 2,000 or 1,500 cells per well in 384-well tissue culture plates (see Table B2). Similarly, Ba/F3 cell lines engineered to express EGFR, ERBB2, or ERBB2 mutants were grown, harvested, counted and seeded at 3000 cells per well in 96-well plates. A subset of wells contained media only (low control, “LC”).
Table B1 provides the growth media and number of cells seeded per well for the each cell line.
Compounds were dissolved in DMSO and serially diluted. Serially-diluted compound or a DMSO only control (high control, “HC”) was added to the plated cells in each well. Compounds were tested at concentrations of about 10 μM to 0.51 nM, using three-fold dilutions. The final proportion of DMSO never exceeded 0.1%.
Plates were placed in a 37° C., 5% CO2 incubator for 72 hours. Plates were then removed from the incubator and equilibrated for 15 minutes at room temperature. 40 μl of CellTiter Glo reagent (Promega) was added to measure the relative level of metabolically active cells by quantifying intracellular ATP concentrations. Plates were incubated for 30 minutes at room temperature, and luminescence was measured. Percent viability was normalized to a vehicle control only using the following formula: % viability=100×(LumSample−LumLC)/(LumHC−LumLC). Graphical curves were fitted using a nonlinear regression model with a sigmoidal dose response.

[4] = read-out: Ba/F3 ERBB2 YVMA, IC50, nM

Chain of phosphorylated EGFR (pEGFR) (P00533 25-1210): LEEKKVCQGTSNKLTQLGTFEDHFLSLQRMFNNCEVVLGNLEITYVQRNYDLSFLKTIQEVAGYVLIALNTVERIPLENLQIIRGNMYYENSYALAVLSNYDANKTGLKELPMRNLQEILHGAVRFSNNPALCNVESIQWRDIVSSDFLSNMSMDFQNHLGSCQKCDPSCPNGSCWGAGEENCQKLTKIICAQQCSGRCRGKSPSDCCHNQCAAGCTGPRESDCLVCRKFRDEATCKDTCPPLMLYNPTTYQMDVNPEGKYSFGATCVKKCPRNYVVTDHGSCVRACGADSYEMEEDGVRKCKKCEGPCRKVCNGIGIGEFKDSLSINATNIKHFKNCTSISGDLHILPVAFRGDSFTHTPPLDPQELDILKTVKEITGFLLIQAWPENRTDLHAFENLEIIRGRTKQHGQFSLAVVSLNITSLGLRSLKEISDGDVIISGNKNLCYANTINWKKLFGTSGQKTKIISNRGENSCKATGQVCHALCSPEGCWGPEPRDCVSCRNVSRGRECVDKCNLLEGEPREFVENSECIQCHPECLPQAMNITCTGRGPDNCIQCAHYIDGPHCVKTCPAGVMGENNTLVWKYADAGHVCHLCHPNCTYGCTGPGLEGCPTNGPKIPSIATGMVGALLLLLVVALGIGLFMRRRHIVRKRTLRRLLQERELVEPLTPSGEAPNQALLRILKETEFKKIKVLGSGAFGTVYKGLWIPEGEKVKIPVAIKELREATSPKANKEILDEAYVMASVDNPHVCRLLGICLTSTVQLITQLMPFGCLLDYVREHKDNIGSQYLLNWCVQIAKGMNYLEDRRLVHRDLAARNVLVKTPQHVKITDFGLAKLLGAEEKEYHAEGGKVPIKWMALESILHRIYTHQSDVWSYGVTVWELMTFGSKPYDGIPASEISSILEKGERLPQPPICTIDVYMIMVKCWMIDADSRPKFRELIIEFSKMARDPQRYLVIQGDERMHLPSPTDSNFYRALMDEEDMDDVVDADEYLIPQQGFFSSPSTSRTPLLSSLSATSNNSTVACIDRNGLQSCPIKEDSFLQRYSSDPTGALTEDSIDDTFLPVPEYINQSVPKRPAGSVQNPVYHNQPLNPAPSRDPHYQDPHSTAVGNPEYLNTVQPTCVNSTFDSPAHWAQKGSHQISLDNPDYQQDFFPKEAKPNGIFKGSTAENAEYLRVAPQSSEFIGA
Chain of phosphorylated ERBB2 (pERBB2) (P04626 23-1255): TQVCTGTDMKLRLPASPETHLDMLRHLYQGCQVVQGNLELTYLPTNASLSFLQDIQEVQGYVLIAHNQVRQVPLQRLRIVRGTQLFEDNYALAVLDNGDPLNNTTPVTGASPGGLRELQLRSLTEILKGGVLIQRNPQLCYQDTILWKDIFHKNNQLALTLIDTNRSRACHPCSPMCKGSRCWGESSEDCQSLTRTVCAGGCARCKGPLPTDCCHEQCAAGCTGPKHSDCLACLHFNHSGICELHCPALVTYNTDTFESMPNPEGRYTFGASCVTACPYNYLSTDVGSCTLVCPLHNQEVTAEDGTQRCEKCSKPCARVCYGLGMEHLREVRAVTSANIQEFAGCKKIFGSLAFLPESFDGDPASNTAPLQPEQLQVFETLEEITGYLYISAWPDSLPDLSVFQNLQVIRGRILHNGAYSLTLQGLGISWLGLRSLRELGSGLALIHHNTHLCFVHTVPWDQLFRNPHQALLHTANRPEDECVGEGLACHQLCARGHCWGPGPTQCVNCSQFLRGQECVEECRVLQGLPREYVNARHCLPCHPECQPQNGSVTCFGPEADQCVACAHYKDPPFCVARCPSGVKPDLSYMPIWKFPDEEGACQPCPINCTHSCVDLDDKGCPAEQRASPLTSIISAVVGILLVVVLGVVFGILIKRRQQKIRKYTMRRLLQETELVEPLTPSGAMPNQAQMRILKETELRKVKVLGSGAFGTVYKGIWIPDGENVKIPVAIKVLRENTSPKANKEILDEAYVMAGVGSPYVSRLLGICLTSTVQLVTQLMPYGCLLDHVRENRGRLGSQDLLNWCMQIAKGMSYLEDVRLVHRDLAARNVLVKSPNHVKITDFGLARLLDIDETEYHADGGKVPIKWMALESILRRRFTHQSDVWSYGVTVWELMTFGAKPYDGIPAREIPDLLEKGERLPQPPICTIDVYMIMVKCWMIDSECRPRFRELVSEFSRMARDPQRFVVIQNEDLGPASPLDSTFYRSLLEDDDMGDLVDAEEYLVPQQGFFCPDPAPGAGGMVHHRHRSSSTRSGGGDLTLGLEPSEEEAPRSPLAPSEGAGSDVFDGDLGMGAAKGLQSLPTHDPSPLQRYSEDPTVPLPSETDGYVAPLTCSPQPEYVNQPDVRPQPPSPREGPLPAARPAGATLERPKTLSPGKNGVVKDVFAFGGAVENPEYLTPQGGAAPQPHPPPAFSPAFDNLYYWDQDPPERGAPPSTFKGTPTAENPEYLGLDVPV

| IC50 ([3]; Ba/F3 cells engineered to express human ERBB2 YVMA mutant, 72 hours, CellTiter Glo viability, read-out: Ba/F3 ERBB2 YVMA, IC50) [nM] | Compound | IC50 [1] [nM] | IC50 [2] [nM] | IC50 [3, 4] [nM] |
| --- | --- | --- | --- | --- |
|  | Cc1cc(Nc2ncnc3cc4c(nc23)N2CCN(C(=O)/C=C/CN3CCC3)C(CO4)C2)ccc1Oc1ccn2ncnc2c1 (stereo in doubt) [Compound 26, (E)-1-((10S)-4-((4-([1,2,4]triazolo[1,5-a]pyridin-7-yloxy)-3-methylphenyl)amino)-7,8,10,11-tetrahydro-9H-6,10-methanopyrimido[4′,5′:5,6]pyrido[3,2-b][1,4,7]oxadiazonin-9-yl)-4-(azetidin-1-yl)but-2-en-1-one] | 41.1 | > 10000 | 24.9 |
| 10.5 | Cc1cc(Nc2ncnc3cc4c(nc23)N2CCN(C(=O)/C=C/[C@H](C)N(C)C)C(CO4)C2)ccc1Oc1ccn2ncnc2c1 (stereo in doubt) [Compound 30, (4S,E)-1-((10S)-4-((4-([1,2,4]triazolo[1,5-a]pyridin-7-yloxy)-3-methylphenyl)amino)-7,8,10,11-tetrahydro-9H-6,10-methanopyrimido[4′,5′:5,6]pyrido[3,2-b][1,4,7]oxadiazonin-9-yl)-4-(dimethylamino)pent-2-en-1-one] | 10.6 | > 10000 |  |
|  | C=CC(=O)N1CCN2CC1COc1cc3ncnc(Nc4ccc(Oc5ccn6ccnc6c5)c(C)c4)c3nc12 (stereo in doubt) [Compound 33, 1-((10S)-4-((4-(imidazo[1,2-a]pyridin-7-yloxy)-3-methylphenyl)amino)-7,8,10,11-tetrahydro-9H-6,10-methanopyrimido[4′,5′:5,6]pyrido[3,2-b][1,4,7]oxadiazonin-9-yl)prop-2-en-1-one] | 16.8 | 164 | 12 |
|  | [2H]C([2H])([2H])N(C/C=C/C(=O)N1CCN2CC1COc1cc3ncnc(Nc4ccc(Oc5ccn6ncnc6c5)c(C)c4)c3nc12)C([2H])([2H])[2H] (stereo in doubt) [Compound 36, (E)-1-((10S)-4-((4-([1,2,4]triazolo[1,5-a]pyridin-7-yloxy)-3-methylphenyl)amino)-7,8,10,11-tetrahydro-9H-6,10-methanopyrimido[4′,5′:5,6]pyrido[3,2-b][1,4,7]oxadiazonin-9-yl)-4-(bis(methyl-d3)amino)but-2-en-1-one formic acid] | 9.92 | 1620 | 6.19 |
|  | CNC/C=C/C(=O)N1CCN2CC1COc1cc3ncnc(Nc4ccc(Oc5ccn6ncnc6c5)c(C)c4)c3nc12 (stereo in doubt) [Compound 37, (E)-1-((10S)-4-((4-([1,2,4]triazolo[1,5-a]pyridin-7-yloxy)-3-methylphenyl)amino)-7,8,10,11-tetrahydro-9H-6,10-methanopyrimido[4′,5′:5,6]pyrido[3,2-b][1,4,7]oxadiazonin-9-yl)-4-(methylamino)but-2-en-1-one formate] | 28 | 3620 | 52.3 |
|  | CCc1ccc(Oc2ccc(Nc3ncnc4cc5c(nc34)N3CCN(C(=O)/C=C/CN(C)C)C(CO5)C3)cc2C)cn1 (stereo in doubt) [Compound 38, (E)-4-(dimethylamino)-1-((10S)-4-((4-((6-ethylpyridin-3-yl)oxy)-3-methylphenyl)amino)-7,8,10,11-tetrahydro-9H-6,10-methanopyrimido[4′,5′:5,6]pyrido[3,2-b][1,4,7]oxadiazonin-9-yl)but-2-en-1-one formic acid] | 126 | 3080 | 11.8 |
|  | [2H]C([2H])([2H])N(C/C=C/C(=O)N1CCN2CC1COc1cc3ncnc(Nc4cc(C)c(Oc5ccn6ncnc6c5)cc4F)c3nc12)C([2H])([2H])[2H] (stereo in doubt) [Compound 46, (E)-1-((10S)-4-((4-([1,2,4]triazolo[1,5-a]pyridin-7-yloxy)-2-fluoro-5-methylphenyl)amino)-7,8,10,11-tetrahydro-9H-6,10-methanopyrimido[4′,5′:5,6]pyrido[3,2-b][1,4,7]oxadiazonin-9-yl)-4-(bis(methyl-d3)amino)but-2-en-1-one] | 6.84 | 2470 | 7.04 |

From US20230382923A1, “FUSED TETRACYCLIC QUINAZOLINE DERIVATIVES AS INHIBITORS OF ERBB2” (EnLiven Therapeutics, Inc., priority 2021, published 2023)
